Laboratory results: publication PMC5601738, “Facile total synthesis of lysicamine and the anticancer activities of the Ru^II, Rh^III, Mn^II and Zn^II complexes of lysicamine” (Oncotarget, 2017)

How the values were obtained:
[1] = system: apoptosis associated proteins in HepG2 cells; assay: Western blot of apoptosis-related proteins; details: HepG2, 24 h, various concentrations
[2] = system: apoptosis genes in HepG2 cells; assay: RT-qPCR array, human apoptosis PCR array (PAHS-012Z); assay type: cell-based; details: Hep-G2 cells, 14 μM, 24 h, vs control

COc1cc2ccnc3c2c(c1OC)-c1ccccc1C3=O.COc1cc2ccnc3c2c(c1OC)-c1ccccc1C3=O.COc1cc2ccnc3c2c(c1OC)-c1ccccc1C3=O.ClC(Cl)Cl.ClC(Cl)Cl.ClC(Cl)Cl.[Mn+2].[O-][Cl+3]([O-])([O-])[O-].[O-][Cl+3]([O-])([O-])[O-] [Complex 3, [Mn(LY)3](ClO4)2·3CHCl3]
expression of Bax, Apaf-1 and cytochrome c [1]: increased | expression of C-myc, Bcl-xl and Bcl-2 [1]: decreased | Fold up/down-regulation, ABL1 [2]: 1.14 | Fold up/down-regulation, ACTB [2]: -3.23 | Fold up/down-regulation, AIFM1 [2]: 1.39 | Fold up/down-regulation, AKT1 [2]: -1.50 | Fold up/down-regulation, APAF1 [2]: -1.08 | Fold up/down-regulation, B2M [2]: 1.32 | Fold up/down-regulation, BAD [2]: -1.23 | Fold up/down-regulation, BAG1 [2]: -3.76 | Fold up/down-regulation, BAG3 [2]: 1.12 | Fold up/down-regulation, BAK1 [2]: 2.10 | Fold up/down-regulation, BAX [2]: 1.03 | Fold up/down-regulation, BCL2 [2]: 1.08 | Fold up/down-regulation, BCL2A1 [2]: 15.30 | Fold up/down-regulation, BCL2L1 [2]: -1.97 | Fold up/down-regulation, BCL2L2 [2]: 1.01 | Fold up/down-regulation, BCL2L10 [2]: 1.21 | Fold up/down-regulation, BCL2L11 [2]: 2.71 | Fold up/down-regulation, BCL10 [2]: 1.24 | Fold up/down-regulation, BFAR [2]: 1.36 | Fold up/down-regulation, BID [2]: -1.24 | Fold up/down-regulation, BIK [2]: 3.02 | Fold up/down-regulation, BIRC2 [2]: 1.65 | Fold up/down-regulation, BIRC3 [2]: -1.79 | Fold up/down-regulation, BIRC5 [2]: -1.29 | Fold up/down-regulation, BIRC6 [2]: 1.22 | Fold up/down-regulation, BNIP2 [2]: 1.48 | Fold up/down-regulation, BNIP3 [2]: 1.82 | Fold up/down-regulation, BNIP3L [2]: 2.06 | Fold up/down-regulation, BRAF [2]: 1.10 | Fold up/down-regulation, CASP1 [2]: 1.61 | Fold up/down-regulation, CASP2 [2]: -1.21 | Fold up/down-regulation, CASP3 [2]: 1.46 | Fold up/down-regulation, CASP4 [2]: 1.39 | Fold up/down-regulation, CASP5 [2]: 1.47 | Fold up/down-regulation, CASP6 [2]: 1.46 | Fold up/down-regulation, CASP7 [2]: 1.23 | Fold up/down-regulation, CASP8 [2]: 1.13 | Fold up/down-regulation, CASP9 [2]: 3.47 | Fold up/down-regulation, CASP10 [2]: -1.45 | Fold up/down-regulation, CASP14 [2]: 8.51 | Fold up/down-regulation, CD27 [2]: 4.42 | Fold up/down-regulation, CD40 [2]: -1.09 | Fold up/down-regulation, CD40LG [2]: 1.16 | Fold up/down-regulation, CD70 [2]: -1.62 | Fold up/down-regulation, CFLAR [2]: 1.19 | Fold up/down-regulation, CIDEA [2]: 2.51 | Fold up/down-regulation, CIDEB [2]: -1.33 | Fold up/down-regulation, CRADD [2]: 1.01 | Fold up/down-regulation, CYCS [2]: 2.27 | Fold up/down-regulation, DAPK1 [2]: -1.22 | Fold up/down-regulation, DFFA [2]: 1.10 | Fold up/down-regulation, DIABLO [2]: 1.68 | Fold up/down-regulation, FADD [2]: 1.24 | Fold up/down-regulation, FAS [2]: -1.45 | Fold up/down-regulation, FASLG [2]: 1.37 | Fold up/down-regulation, GADD45A [2]: 3.98 | Fold up/down-regulation, GAPDH [2]: -1.17 | Fold up/down-regulation, HPRT1 [2]: -1.87 | Fold up/down-regulation, HRK [2]: 49.72 | Fold up/down-regulation, IGF1R [2]: -2.51 | Fold up/down-regulation, IL10 [2]: 1.11 | Fold up/down-regulation, LTA [2]: -1.40 | Fold up/down-regulation, LTBR [2]: -1.24 | Fold up/down-regulation, MCL1 [2]: 2.15 | Fold up/down-regulation, NAIP [2]: -1.05 | Fold up/down-regulation, NFKB1 [2]: -1.85 | Fold up/down-regulation, NOD1 [2]: -1.30 | Fold up/down-regulation, NOL3 [2]: -1.07 | Fold up/down-regulation, PYCARD [2]: 2.80 | Fold up/down-regulation, RIPK2 [2]: 1.45 | Fold up/down-regulation, RPLP0 [2]: 1.17 | Fold up/down-regulation, TNF [2]: 16.66 | Fold up/down-regulation, TNFRSF1A [2]: -1.06 | Fold up/down-regulation, TNFRSF1B [2]: -1.05 | Fold up/down-regulation, TNFRSF9 [2]: 110.29 | Fold up/down-regulation, TNFRSF10A [2]: -1.02 | Fold up/down-regulation, TNFRSF10B [2]: 1.11 | Fold up/down-regulation, TNFRSF11B [2]: 3.22 | Fold up/down-regulation, TNFRSF21 [2]: 3.02 | Fold up/down-regulation, TNFRSF25 [2]: 2.68 | Fold up/down-regulation, TNFSF8 [2]: 3.25 | Fold up/down-regulation, TNFSF10 [2]: 1.70 | Fold up/down-regulation, TP53 [2]: -1.05 | Fold up/down-regulation, TP53BP2 [2]: 1.53 | Fold up/down-regulation, TP73 [2]: 1.38 | Fold up/down-regulation, TRADD [2]: 1.11 | Fold up/down-regulation, TRAF2 [2]: -1.21 | Fold up/down-regulation, TRAF3 [2]: 1.01 | Fold up/down-regulation, XIAP [2]: 1.26 | FoldChange, ABL1 relative expression [2]: 1.14 | FoldChange, ACTB relative expression [2]: 0.31 | FoldChange, AIFM1 relative expression [2]: 1.39 | FoldChange, AKT1 relative expression [2]: 0.67 | FoldChange, APAF1 relative expression [2]: 0.92 | FoldChange, B2M relative expression [2]: 1.32 | FoldChange, BAD relative expression [2]: 0.81 | FoldChange, BAG1 relative expression [2]: 0.27 | FoldChange, BAG3 relative expression [2]: 1.12 | FoldChange, BAK1 relative expression [2]: 2.10 | FoldChange, BAX relative expression [2]: 1.03 | FoldChange, BCL2A1 relative expression [2]: 15.30 | FoldChange, BCL2L1 relative expression [2]: 0.51 | FoldChange, BCL2L2 relative expression [2]: 1.01 | FoldChange, BCL2L10 relative expression [2]: 1.21 | FoldChange, BCL2L11 relative expression [2]: 2.71 | FoldChange, BCL2 relative expression [2]: 1.08 | FoldChange, BCL10 relative expression [2]: 1.24 | FoldChange, BFAR relative expression [2]: 1.36 | FoldChange, BID relative expression [2]: 0.80 | FoldChange, BIK relative expression [2]: 3.02 | FoldChange, BIRC2 relative expression [2]: 1.65 | FoldChange, BIRC3 relative expression [2]: 0.56 | FoldChange, BIRC5 relative expression [2]: 0.77 | FoldChange, BIRC6 relative expression [2]: 1.22 | FoldChange, BNIP2 relative expression [2]: 1.48 | FoldChange, BNIP3L relative expression [2]: 2.06 | FoldChange, BNIP3 relative expression [2]: 1.82 | FoldChange, BRAF relative expression [2]: 1.10 | FoldChange, CASP1 relative expression [2]: 1.61 | FoldChange, CASP2 relative expression [2]: 0.83 | FoldChange, CASP3 relative expression [2]: 1.46 | FoldChange, CASP4 relative expression [2]: 1.39 | FoldChange, CASP5 relative expression [2]: 1.47 | FoldChange, CASP6 relative expression [2]: 1.46 | FoldChange, CASP7 relative expression [2]: 1.23 | FoldChange, CASP8 relative expression [2]: 1.13 | FoldChange, CASP9 relative expression [2]: 3.47 | FoldChange, CASP10 relative expression [2]: 0.69 | FoldChange, CASP14 relative expression [2]: 8.51 | FoldChange, CD27 relative expression [2]: 4.42 | FoldChange, CD40LG relative expression [2]: 1.16 | FoldChange, CD40 relative expression [2]: 0.92 | FoldChange, CD70 relative expression [2]: 0.62 | FoldChange, CFLAR relative expression [2]: 1.19 | FoldChange, CIDEA relative expression [2]: 2.51 | FoldChange, CIDEB relative expression [2]: 0.75 | FoldChange, CRADD relative expression [2]: 1.01 | FoldChange, CYCS relative expression [2]: 2.27 | FoldChange, DAPK1 relative expression [2]: 0.82 | FoldChange, DFFA relative expression [2]: 1.10 | FoldChange, DIABLO relative expression [2]: 1.68 | FoldChange, FADD relative expression [2]: 1.24 | FoldChange, FAS relative expression [2]: 0.69 | FoldChange, FASLG relative expression [2]: 1.37 | FoldChange, GADD45A relative expression [2]: 3.98 | FoldChange, GAPDH relative expression [2]: 0.86 | FoldChange, HPRT1 relative expression [2]: 0.54 | FoldChange, HRK relative expression [2]: 49.72 | FoldChange, IGF1R relative expression [2]: 0.40 | FoldChange, IL10 relative expression [2]: 1.11 | FoldChange, LTA relative expression [2]: 0.71 | FoldChange, LTBR relative expression [2]: 0.81 | FoldChange, MCL1 relative expression [2]: 2.15 | FoldChange, NAIP relative expression [2]: 0.95 | FoldChange, NFKB1 relative expression [2]: 0.54 | FoldChange, NOD1 relative expression [2]: 0.77 | FoldChange, NOL3 relative expression [2]: 0.93 | FoldChange, PYCARD relative expression [2]: 2.80 | FoldChange, RIPK2 relative expression [2]: 1.45 | FoldChange, RPLP0 relative expression [2]: 1.17 | FoldChange, TNF relative expression [2]: 16.66 | FoldChange, TNFRSF1A relative expression [2]: 0.94 | FoldChange, TNFRSF1B relative expression [2]: 0.96 | FoldChange, TNFRSF9 relative expression [2]: 110.29 | FoldChange, TNFRSF10A relative expression [2]: 0.98 | FoldChange, TNFRSF10B relative expression [2]: 1.11 | FoldChange, TNFRSF11B relative expression [2]: 3.22 | FoldChange, TNFRSF21 relative expression [2]: 3.02 | FoldChange, TNFRSF25 relative expression [2]: 2.68 | FoldChange, TNFSF8 relative expression [2]: 3.25 | FoldChange, TNFSF10 relative expression [2]: 1.70 | FoldChange, TP53BP2 relative expression [2]: 1.53 | FoldChange, TP53 relative expression [2]: 0.95 | FoldChange, TP73 relative expression [2]: 1.38 | FoldChange, TRADD relative expression [2]: 1.11 | FoldChange, TRAF2 relative expression [2]: 0.82 | FoldChange, TRAF3 relative expression [2]: 1.01 | FoldChange, XIAP relative expression [2]: 1.26
